Drawing on patent EP0391180A2, “Peptide derivatives of amino acids having a renin-inhibiting effect” (F. HOFFMANN-LA ROCHE AG, priority 1989, dated 1990), this text covers IC50 for 7 molecules.

Where two headings read alike, the source gives them in different places.

For this experiment, the target named is T1, Human-Renin (Homo sapiens, UniProt P00797).
T1 sequence (P00797 67-406): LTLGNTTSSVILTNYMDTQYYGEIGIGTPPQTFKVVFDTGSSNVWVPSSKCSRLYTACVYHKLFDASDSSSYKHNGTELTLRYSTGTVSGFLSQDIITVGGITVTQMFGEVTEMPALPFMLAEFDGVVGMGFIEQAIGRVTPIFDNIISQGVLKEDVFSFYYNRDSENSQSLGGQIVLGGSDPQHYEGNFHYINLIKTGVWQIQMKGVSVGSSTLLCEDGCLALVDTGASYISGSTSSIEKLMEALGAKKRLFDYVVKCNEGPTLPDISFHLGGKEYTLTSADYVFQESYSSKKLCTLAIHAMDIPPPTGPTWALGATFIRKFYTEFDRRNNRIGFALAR
Description: In vitro test with pure human renin (angiotensin I production from human tetradecapeptide renin substrate, measured by RIA). It counts as biochemical. The method, then:
In vitro-Test mit reinem Human-Renin
Der Test wird in Eppendorf Röhrchen durchgeführt. Die Inkubationsmischung besteht aus (1) 100 µl Human-Renin in Puffer A (0,1M Natriumphosphatlösung, pH 7,4, enthaltend 0,1% Rinderserumalbumin, 0,1 % Natriumazid und 1 mM Aethylendiamintetraessigsäure), genügend für eine Renin-Aktivität von 2-3 ng Angiotensin I/ ml/Std.; (2) 145 µl Puffer A; (3) 30 µl von 10 µM humanem Tetradekapeptid-Reninsubstrat (hTD) in 10 mM Salzsäure; (4) 15 µl Dimethylsulfoxid mit bzw. ohne Hemmer und (5) 10 µl einer 0,03 molaren Lösung von Hydroxychinolinsulfat in Wasser.
Die Proben werden drei Stunden bei 37°C bzw. 4°C in Triplikaten inkubiert. 2 x 100 µl Proben pro Versuchsröhrchen werden dann verwendet, um die Produktion von Angiotensin I via RIA (standard radioimmunoassay; Clinical Assay solid phase kit) zu messen. Kreuzreaktivitäten der verwendeten Antikörper im RIA sind: Angiotensin I 100 %; Angiotensin II 0,0013 %; hTD (Angiotensin I-Val-Ile-His-Ser-OH) 0,09 %. Die Produktion von Angiotensin I wird durch die Differenz zwischen dem Versuch bei 37°C und demjenigen bei 4°C bestimmt.
Folgende Kontrollen werden mitgeführt: • (a) Inkubation von hTD-Proben ohne Renin und ohne Hemmer bei 37°C und 4°C. Die Differenz zwischen diesen beiden Werten ergibt den Grundwert der Angiotensin I-Produktion. • (b) Inkubation von hTD-Proben mit Renin, jedoch ohne Hemmer bei 37°C und 4°C. Die Differenz zwischen diesen Werten ergibt den Maximalwert der Angiotensin I-Produktion.
In jeder Probe wird von der ermittelten Angiotensin I-Produktion der Grundwert der Angiotensin I-Produktion abgezogen. Die Differenz zwischen dem Maximalwert und dem Grundwert ergibt den Wert der maximalen Substrathydrolyse (=100%) durch Renin.
Die Resultate werden als IC₅₀-Werte angegeben, welche diejenige Konzentration des Hemmers bezeichnen, bei welcher die enzymatische Aktivität um 50% gehemmt wird. Die IC₅₀-Werte werden aus einer linearen Regressionskurve aus einem logit-log plot ermittelt.

The mark [1] stands for this setting: pure human renin, substrate hTD, pH 7,4, incubation 3 h at 37°C vs 4°C, angiotensin I by RIA, IC50 from logit-log plot, read-out: IC₅₀-Werte.

Regarding `C=C[C@H](CC)C[C@H](O)[C@H](CC1CCCCC1)NC(=O)[C@H](Cc1c[nH]cn1)NC(=O)[C@H](Cc1ccccc1)NC(=O)[C@H]1CCCN1C(=O)OC(C)(C)C` [A, t-Butyl (R)-2-[[(S)-α-[[(S)-1-[[(1S,2S,4R)-1-(cyclohexylmethyl)-2-hydroxy-4-äthyl-5-hexenyl]carbamoyl]-2-imidazol-4-yläthyl]carbamoyl]phenäthyl]carbamoyl]-1-pyrrolidincarboxylat], under setting [1], the IC50 was found to be 0.2 nM.

`C=C[C@H](CC)C[C@H](O)[C@H](CC1CCCCC1)NC(=O)[C@H](Cc1c[nH]cn1)NC(=O)[C@@H](CC(=O)C(C)(C)C)Cc1ccccc1` [C, (S)-N-[(1S,2S,4R)-1-(Cyclohexylmethyl)-4-äthyl-2-hydroxy-5-hexenyl]-α-[(R)-α-(3,3-dimethyl-2-oxobutyl)hydrocinnamamido]imidazol-4-propionamid]: the IC50 under setting [1] is 4.2 nM.

Regarding `C=C[C@H](CC)C[C@H](O)[C@H](CC1CCCCC1)NC(=O)[C@H](Cc1cnc[nH]1)NC(=O)[C@H](Cc1ccccc1)CS(=O)(=O)C(C)(C)C` [D, (S)-α-[(S)-α-[(t-Butylsulfonyl)methyl]hydrocinnamamido]-N-[(1S,2S,4R)-1-(cyclohexylmethyl)-4-äthyl-2-hydroxy-5-hexenyl]imidazol-5-propionamid], the IC50 under setting [1] came to 1 nM.

`CC(C)(C)OC(=O)N1CCC[C@@H]1C(=O)N[C@@H](Cc1ccccc1)C(=O)N[C@@H](Cc1c[nH]cn1)C(=O)N[C@@H](CC1CCCCC1)C(O)CC1CCCCC1` (single isomer, unassigned) [F] returned an IC50 of 1 nM.

For `CC(C)(C)OC(=O)N[C@@H](Cc1ccccc1)C(=O)N[C@@H](Cc1c[nH]cn1)C(=O)N[C@@H](CC1CCCCC1)C(O)CC1CCCCC1` (single isomer, unassigned) [E], under setting [1], the IC50 came out at 2.6 nM.

`CCC(CC)C[C@H](O)[C@H](CC1CCCCC1)NC(=O)[C@H](Cc1c[nH]cn1)NC(=O)[C@H](Cc1ccccc1)NC(=O)[C@H]1CCCN1C(=O)OC(C)(C)C` [B, t-Butyl (R)-2-[[(S)-α-[[(S)-1-[[(1S,2S)-1-(cyclohexylmethyl)-2-hydroxy-4-äthylhexyl]carbamoyl]-2-imidazol-4-yläthyl]carbamoyl]phenäthyl]carbamoyl]-1-pyrrolidincarboxylat]: the IC50 under setting [1] was determined as 1 nM.

As for `CCC(F)(CC)C[C@H](O)[C@H](CC1CCCCC1)NC(=O)[C@H](Cc1c[nH]cn1)NC(=O)[C@@H](CC(=O)C(C)(C)C)Cc1ccccc1` [G, (S)-N-[(1S,2S)-1-(Cyclohexylmethyl)-4-äthyl-4-fluor-2-hydroxyhexyl]-α-[(R)-α-(3,3-dimethyl-2-oxobutyl)hydrocinnamamido]imidazol-4-propionamid], the IC50 under setting [1] amounted to 5 nM.
